Active and inactive are the calls of the source. No cut-off for these calls is given here.
Experiments:
[1] = Inhibition of JAK-mediated IL4-induced Stat5 phosphorylation in BALB/c mouse CD11b-int macrophages by Phospho-Flow cytometry
[2] = target: T1, Janus Kinase (JAK) (Homo sapiens) (UniProt P52333+P23458+O60674+P29597); assay: Inhibition of JAK-mediated GM-CSF-induced Stat5 phosphorylation in human U937 cells by Phospho-Flow cytometry at 20 uM; type: cell-based; conditions: U-937
[3] = target: T1, Janus Kinase (JAK) (Homo sapiens); assay: Inhibition of JAK-mediated interferon-gamma-induced Stat1 phosphorylation in human U937 cells by Phospho-Flow cytometry at 20 uM; type: cell-based; conditions: U-937
MAP kinase p38 = MAP kinase p38 (Homo sapiens, UniProt O15264+Q15759+Q16539+P53778); assay: Inhibition of anisomycin-induced p38 phosphorylation in human U937 cells by Phospho-Flow cytometry at 20 uM; type: cell-based; conditions: U-937
[4] = Inhibition of JAK-mediated IL6-induced Stat1 phosphorylation in BALB/c mouse B cells by Phospho-Flow cytometry; type: cell-based
[5] = Inhibition of JAK-mediated IL10-induced Stat3 phosphorylation in BALB/c mouse B cells by Phospho-Flow cytometry; type: cell-based
[6] = Inhibition of JAK-mediated interferon-gamma-induced Stat1 phosphorylation in BALB/c mouse B cells by Phospho-Flow cytometry; type: cell-based
[7] = Inhibition of JAK-mediated IL6-induced Stat3 phosphorylation in BALB/c mouse B cells by Phospho-Flow cytometry; type: cell-based
[8] = Inhibition of JAK-mediated IL15-induced Stat5 phosphorylation in BALB/c mouse B cells by Phospho-Flow cytometry; type: cell-based
[9] = Inhibition of JAK-mediated IL7-induced Stat5 phosphorylation in BALB/c mouse B cells by Phospho-Flow cytometry; type: cell-based
[10] = Inhibition of JAK-mediated IL4-induced Stat5 phosphorylation in BALB/c mouse B cells by Phospho-Flow cytometry; type: cell-based
[11] = Inhibition of JAK-mediated IL6-induced Stat1 phosphorylation in BALB/c mouse CD4+ T cells by Phospho-Flow cytometry; type: cell-based; conditions: T-cell
[12] = Inhibition of JAK-mediated IL10-induced Stat3 phosphorylation in BALB/c mouse CD4+ T cells by Phospho-Flow cytometry; type: cell-based; conditions: T-cell
[13] = Inhibition of JAK-mediated interferon-gamma-induced Stat1 phosphorylation in BALB/c mouse CD4+ T cells by Phospho-Flow cytometry; type: cell-based; conditions: T-cell
[14] = Inhibition of JAK-mediated IL6-induced Stat3 phosphorylation in BALB/c mouse CD4+ T cells by Phospho-Flow cytometry; type: cell-based; conditions: T-cell
[15] = Inhibition of JAK-mediated IL15-induced Stat5 phosphorylation in BALB/c mouse CD4+ T cells by Phospho-Flow cytometry; type: cell-based; conditions: T-cell
[16] = Inhibition of JAK-mediated IL7-induced Stat5 phosphorylation in BALB/c mouse CD4+ T cells by Phospho-Flow cytometry; type: cell-based; conditions: T-cell
[17] = Inhibition of JAK-mediated IL4-induced Stat6 phosphorylation in BALB/c mouse CD4+ T cells by Phospho-Flow cytometry; type: cell-based; conditions: T-cell
[18] = Inhibition of JAK-mediated IL4-induced Stat5 phosphorylation in BALB/c mouse CD4+ T cells by Phospho-Flow cytometry; type: cell-based; conditions: T-cell
[19] = Inhibition of JAK-mediated IL6-induced Stat1 phosphorylation in BALB/c mouse CD8+ T cells by Phospho-Flow cytometry; type: cell-based; conditions: T-cell
[20] = Inhibition of JAK-mediated IL10-induced Stat3 phosphorylation in BALB/c mouse CD8+ T cells by Phospho-Flow cytometry; type: cell-based; conditions: T-cell
[21] = Inhibition of JAK-mediated IL6-induced Stat3 phosphorylation in BALB/c mouse CD8+ T cells by Phospho-Flow cytometry; type: cell-based; conditions: T-cell
[22] = Inhibition of JAK-mediated IL15-induced Stat5 phosphorylation in BALB/c mouse CD8+ T cells by Phospho-Flow cytometry; type: cell-based; conditions: T-cell
[23] = Inhibition of JAK-mediated IL7-induced Stat5 phosphorylation in BALB/c mouse CD8+ T cells by Phospho-Flow cytometry; type: cell-based; conditions: T-cell
[24] = Inhibition of JAK-mediated IL4-induced Stat6 phosphorylation in BALB/c mouse CD8+ T cells by Phospho-Flow cytometry; type: cell-based; conditions: T-cell
[25] = Inhibition of JAK-mediated IL4-induced Stat5 phosphorylation in BALB/c mouse CD8+ T cells by Phospho-Flow cytometry; type: cell-based; conditions: T-cell
[26] = Inhibition of JAK-mediated IL6-induced Stat1 phosphorylation in BALB/c mouse CD11b-hi neutrophils by Phospho-Flow cytometry
[27] = Inhibition of JAK-mediated IL10-induced Stat3 phosphorylation in BALB/c mouse CD11b-hi neutrophils by Phospho-Flow cytometry
[28] = Inhibition of JAK-mediated interferon-gamma-induced Stat1 phosphorylation in BALB/c mouse CD11b-hi neutrophils by Phospho-Flow cytometry
[29] = Inhibition of JAK-mediated IL6-induced Stat3 phosphorylation in BALB/c mouse CD11b-hi neutrophils by Phospho-Flow cytometry
[30] = Inhibition of JAK-mediated IL15-induced Stat5 phosphorylation in BALB/c mouse CD11b-hi neutrophils by Phospho-Flow cytometry
[31] = Inhibition of JAK-mediated IL7-induced Stat5 phosphorylation in BALB/c mouse CD11b-hi neutrophils by Phospho-Flow cytometry
[32] = Inhibition of JAK-mediated IL4-induced Stat5 phosphorylation in BALB/c mouse CD11b-hi neutrophils by Phospho-Flow cytometry
[33] = Inhibition of JAK-mediated IL6-induced Stat1 phosphorylation in BALB/c mouse CD11b-int macrophages by Phospho-Flow cytometry
[34] = Inhibition of JAK-mediated IL10-induced Stat3 phosphorylation in BALB/c mouse CD11b-int macrophages by Phospho-Flow cytometry
[35] = Inhibition of JAK-mediated interferon-gamma-induced Stat1 phosphorylation in BALB/c mouse CD11b-int macrophages by Phospho-Flow cytometry
[36] = Inhibition of JAK-mediated IL6-induced Stat3 phosphorylation in BALB/c mouse CD11b-int macrophages by Phospho-Flow cytometry
[37] = Inhibition of JAK-mediated IL15-induced Stat5 phosphorylation in BALB/c mouse CD11b-int macrophages by Phospho-Flow cytometry
[38] = Inhibition of JAK-mediated IL7-induced Stat5 phosphorylation in BALB/c mouse CD11b-int macrophages by Phospho-Flow cytometry
[39] = Inhibition of JAK-mediated IL4-induced Stat6 phosphorylation in BALB/c mouse CD11b-int macrophages by Phospho-Flow cytometry
B = assay: Inhibition of JAK-mediated interferon-gamma-induced Stat1 phosphorylation in BALB/c mouse B cells at 3.5 uM by Phospho-Flow cytometry; type: cell-based
T-cell = assay: Inhibition of JAK-mediated interferon-gamma-induced Stat1 phosphorylation in BALB/c mouse CD4+ T cells at 100 uM by Phospho-Flow cytometry; type: cell-based
Mus musculus [40] = assay: In vivo inhibition of JAK-mediated IL4-induced Stat6 phosphorylation in blood cells in BALB/c mouse at 1 to 10 mg/kg, iv administered 30 mins before IL challenge for 15 mins; type: functional, organism-based
Mus musculus [41] = assay: In vivo inhibition of JAK-mediated IL6-induced Stat3 phosphorylation in blood cells in BALB/c mouse at 1 to 10 mg/kg, iv administered 30 mins before IL challenge for 15 mins; type: functional, organism-based
Mus musculus [42] = assay: In vivo inhibition of JAK-mediated IL4-induced Stat6 phosphorylation in spleen cells in BALB/c mouse at 1 to 10 mg/kg, iv administered 30 mins before IL challenge for 15 mins; type: functional, organism-based
Mus musculus [43] = assay: In vivo inhibition of JAK-mediated IL6-induced Stat3 phosphorylation in spleen cells in BALB/c mouse at 1 to 10 mg/kg, iv administered 30 mins before IL challenge for 15 mins; type: functional, organism-based

COC1=C(N)C(=O)c2nc(-c3nc(C(=O)O)c(C)c(-c4ccc(OC)c(OC)c4O)c3N)ccc2C1=O [STREPTONIGRIN]
IC50 [1]: < 20 µM | inhibition [2]: 25% | inhibition [3]: > 65% | inhibition (MAP kinase p38): 25% | IC50 [4]: < 20 µM | IC50 [5]: < 20 µM | IC50 [6]: < 20 µM | IC50 [7]: < 20 µM | IC50 [8]: < 20 µM | IC50 [9]: < 20 µM | IC50 [10]: < 20 µM | IC50 [11]: < 20 µM | IC50 [12]: < 20 µM | IC50 [13]: < 20 µM | IC50 [14]: < 20 µM | IC50 [15]: < 20 µM | IC50 [16]: < 20 µM | IC50 [17]: < 20 µM | IC50 [18]: < 20 µM | IC50 [19]: < 20 µM | IC50 [20]: < 20 µM | IC50 [21]: < 20 µM | IC50 [22]: < 20 µM | IC50 [23]: < 20 µM | IC50 [24]: < 20 µM | IC50 [25]: < 20 µM | IC50 [26]: < 20 µM | IC50 [27]: < 20 µM | IC50 [28]: < 20 µM | IC50 [29]: < 20 µM | IC50 [30]: < 20 µM | IC50 [31]: < 20 µM | IC50 [32]: < 20 µM | IC50 [33]: < 20 µM | IC50 [34]: < 20 µM | IC50 [35]: < 20 µM | IC50 [36]: < 20 µM | IC50 [37]: < 20 µM | IC50 [38]: < 20 µM | IC50 [39]: < 20 µM | inhibition (B): Active | inhibition (T-cell): < 50% | inhibition (Mus musculus [40]): Active | inhibition (Mus musculus [41]): Active | inhibition (Mus musculus [42]): Active | inhibition (Mus musculus [43]): Active

Source: ChEMBL document CHEMBL1212697, “High-content single-cell drug screening with phosphospecific flow cytometry” (Nat Chem Biol, 2008)
